# From PubChem BioAssay (NCI)
#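 Dose response: 5 concentrations. Exposure: 48 h. Format: 96-well plates. Endpoint: linear interpolation; highest concentration if not reached. TGI is the concentration that stops growth completely.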
# Columns and labels:
# Experiment in all cases: growth of human tumour cells (NCI), 48 h
# OVCAR-8 ovarian = test system: OVCAR-8 ovarian
# U251 CNS = test system: U251 CNS
# HCT-116 colon = test system: HCT-116 colon
# SF-539 CNS = test system: SF-539 CNS
# NCI-H23 lung = test system: NCI-H23 lung
# MOLT-4 leukemia = test system: MOLT-4 leukemia
# MDA-N = test system: MDA-N
# RPMI-8226 leukemia = test system: RPMI-8226 leukemia
# SK-MEL-5 melanoma = test system: SK-MEL-5 melanoma
# DU-145 prostate = test system: DU-145 prostate
# OVCAR-5 ovarian = test system: OVCAR-5 ovarian
# K-562 leukemia = test system: K-562 leukemia
# IGROV1 ovarian = test system: IGROV1 ovarian
# MALME-3M melanoma = test system: MALME-3M melanoma
# BT-549 breast = test system: BT-549 breast
# SW-620 colon = test system: SW-620 colon
# SK-OV-3 ovarian = test system: SK-OV-3 ovarian
# SNB-19 CNS = test system: SNB-19 CNS
# COLO 205 colon = test system: COLO 205 colon
# NCI-H522 lung = test system: NCI-H522 lung
# HS 578T breast = test system: HS 578T breast
# SN12C renal = test system: SN12C renal
# PC-3 prostate = test system: PC-3 prostate
# SF-268 CNS = test system: SF-268 CNS
# MCF7 breast = test system: MCF7 breast
# UO-31 renal = test system: UO-31 renal
# A549 NSCLC = test system: A549 NSCLC
# MDA-MB-231 breast = test system: MDA-MB-231 breast
# ACHN renal = test system: ACHN renal
# NCI/ADR-RES ovarian = test system: NCI/ADR-RES ovarian
# RXF 393 renal = test system: RXF 393 renal
# SK-MEL-28 melanoma = test system: SK-MEL-28 melanoma
# HT29 colon = test system: HT29 colon
# CCRF-CEM leukemia = test system: CCRF-CEM leukemia
# OVCAR-4 ovarian = test system: OVCAR-4 ovarian
# M14 melanoma = test system: M14 melanoma
# SNB-75 CNS = test system: SNB-75 CNS
# HL-60(TB) leukemia = test system: HL-60(TB) leukemia
# CAKI-1 renal = test system: CAKI-1 renal
# SF-295 CNS = test system: SF-295 CNS
# TK-10 renal = test system: TK-10 renal
# UACC-257 melanoma = test system: UACC-257 melanoma
# UACC-62 melanoma = test system: UACC-62 melanoma
# MDA-MB-435 = test system: MDA-MB-435
# HCT-15 colon = test system: HCT-15 colon
# OVCAR-3 ovarian = test system: OVCAR-3 ovarian
# KM12 colon = test system: KM12 colon
# NCI-H460 lung = test system: NCI-H460 lung
# 786-0 renal = test system: 786-0 renal
# NCI-H226 lung = test system: NCI-H226 lung
# HOP-62 NSCLC = test system: HOP-62 NSCLC
# EKVX NSCLC = test system: EKVX NSCLC
# SR leukemia = test system: SR leukemia
# A498 renal = test system: A498 renal
# SK-MEL-2 melanoma = test system: SK-MEL-2 melanoma
# LOX IMVI melanoma = test system: LOX IMVI melanoma
# T-47D breast = test system: T-47D breast
# HCC-2998 colon = test system: HCC-2998 colon
smiles,measurement,setting,value
CCN(CC)CCNc1ccc(C)c2sc3ccccc3c(=O)c12,TGI,OVCAR-8 ovarian,13.3 µM
same,TGI,U251 CNS,5.65 µM
same,TGI,HCT-116 colon,4.31 µM
same,TGI,SF-539 CNS,8.04 µM
same,TGI,NCI-H23 lung,10.3 µM
same,TGI,MOLT-4 leukemia,4.65 µM
same,TGI,MDA-N,4.04 µM
same,TGI,RPMI-8226 leukemia,4.37 µM
same,TGI,SK-MEL-5 melanoma,5.4 µM
same,TGI,DU-145 prostate,18.3 µM
same,TGI,OVCAR-5 ovarian,9.59 µM
same,TGI,K-562 leukemia,6.08 µM
same,TGI,IGROV1 ovarian,13.5 µM
same,TGI,MALME-3M melanoma,9.46 µM
same,TGI,BT-549 breast,19.4 µM
same,TGI,SW-620 colon,4.35 µM
same,TGI,SK-OV-3 ovarian,18.1 µM
same,TGI,SNB-19 CNS,8.85 µM
same,TGI,COLO 205 colon,4.23 µM
same,TGI,NCI-H522 lung,5.5 µM
same,TGI,HS 578T breast,6.63 µM
same,TGI,SN12C renal,12.2 µM
same,TGI,PC-3 prostate,11.2 µM
same,TGI,SF-268 CNS,20.4 µM
same,TGI,MCF7 breast,5.8 µM
same,TGI,UO-31 renal,3 µM
same,TGI,A549 NSCLC,7.13 µM
same,TGI,MDA-MB-231 breast,7.96 µM
same,TGI,ACHN renal,11.5 µM
same,TGI,NCI/ADR-RES ovarian,16.9 µM
same,TGI,RXF 393 renal,4.73 µM
same,TGI,SK-MEL-28 melanoma,3.51 µM
same,TGI,HT29 colon,3.52 µM
same,TGI,CCRF-CEM leukemia,8.04 µM
same,TGI,OVCAR-4 ovarian,18.1 µM
same,TGI,M14 melanoma,3.36 µM
same,TGI,SNB-75 CNS,7.68 µM
same,TGI,HL-60(TB) leukemia,3.85 µM
same,TGI,CAKI-1 renal,8.02 µM
same,TGI,SF-295 CNS,5.66 µM
same,TGI,TK-10 renal,11 µM
same,TGI,UACC-257 melanoma,3.18 µM
same,TGI,UACC-62 melanoma,3.68 µM
same,TGI,MDA-MB-435,4.49 µM
same,TGI,HCT-15 colon,8.87 µM
same,TGI,OVCAR-3 ovarian,16.8 µM
same,TGI,KM12 colon,10.4 µM
same,TGI,NCI-H460 lung,5.93 µM
same,TGI,786-0 renal,9.32 µM
same,TGI,NCI-H226 lung,11.8 µM
same,TGI,HOP-62 NSCLC,24.2 µM
same,TGI,EKVX NSCLC,19.3 µM
same,TGI,SR leukemia,6.58 µM
same,TGI,A498 renal,8.05 µM
same,TGI,SK-MEL-2 melanoma,10.3 µM
same,TGI,LOX IMVI melanoma,3.26 µM
same,TGI,T-47D breast,19.4 µM
same,TGI,HCC-2998 colon,14 µM
CCC1=NC(C(F)(F)F)(C(F)(F)F)N=C(/N=C(/N)N(C)C(C(C)C)P(=O)(OC(C)C)OC(C)C)O1 (stereo unspecified),TGI,OVCAR-8 ovarian,> 100 µM
same,TGI,U251 CNS,> 100 µM
same,TGI,HCT-116 colon,> 100 µM
same,TGI,SF-539 CNS,> 100 µM
same,TGI,NCI-H23 lung,> 100 µM
same,TGI,MOLT-4 leukemia,> 100 µM
same,TGI,MDA-N,> 100 µM
same,TGI,RPMI-8226 leukemia,> 100 µM
same,TGI,SK-MEL-5 melanoma,> 100 µM
same,TGI,DU-145 prostate,> 100 µM
same,TGI,OVCAR-5 ovarian,> 100 µM
same,TGI,K-562 leukemia,> 100 µM
same,TGI,IGROV1 ovarian,> 100 µM
same,TGI,MALME-3M melanoma,> 100 µM
same,TGI,BT-549 breast,> 100 µM
same,TGI,SW-620 colon,> 100 µM
same,TGI,SK-OV-3 ovarian,> 100 µM
same,TGI,SNB-19 CNS,> 100 µM
same,TGI,COLO 205 colon,> 100 µM
same,TGI,NCI-H522 lung,> 100 µM
same,TGI,HS 578T breast,> 100 µM
same,TGI,SN12C renal,> 100 µM
same,TGI,PC-3 prostate,> 100 µM
same,TGI,SF-268 CNS,> 100 µM
same,TGI,MCF7 breast,> 100 µM
same,TGI,UO-31 renal,> 100 µM
same,TGI,A549 NSCLC,> 100 µM
same,TGI,MDA-MB-231 breast,> 100 µM
same,TGI,ACHN renal,> 100 µM
same,TGI,NCI/ADR-RES ovarian,> 100 µM
same,TGI,RXF 393 renal,> 100 µM
same,TGI,SK-MEL-28 melanoma,> 100 µM
same,TGI,HT29 colon,> 100 µM
same,TGI,CCRF-CEM leukemia,> 100 µM
same,TGI,OVCAR-4 ovarian,> 100 µM
same,TGI,M14 melanoma,> 100 µM
same,TGI,SNB-75 CNS,> 100 µM
same,TGI,HL-60(TB) leukemia,> 100 µM
same,TGI,CAKI-1 renal,> 100 µM
same,TGI,SF-295 CNS,> 100 µM
same,TGI,TK-10 renal,> 100 µM
same,TGI,UACC-257 melanoma,> 100 µM
same,TGI,UACC-62 melanoma,> 100 µM
same,TGI,MDA-MB-435,> 100 µM
same,TGI,HCT-15 colon,> 100 µM
same,TGI,OVCAR-3 ovarian,> 100 µM
same,TGI,KM12 colon,> 100 µM
same,TGI,NCI-H460 lung,> 100 µM
same,TGI,786-0 renal,> 100 µM
same,TGI,NCI-H226 lung,> 100 µM
same,TGI,HOP-62 NSCLC,> 100 µM
same,TGI,EKVX NSCLC,> 100 µM
same,TGI,SR leukemia,> 100 µM
same,TGI,A498 renal,> 100 µM
same,TGI,SK-MEL-2 melanoma,> 100 µM
same,TGI,LOX IMVI melanoma,> 100 µM
same,TGI,T-47D breast,> 100 µM
same,TGI,HCC-2998 colon,> 100 µM
